# Like-named read-outs stand apart in the source and are kept apart here.
# Experiments:
# Duck hepatitis A virus = test system: Duck hepatitis A virus; parameters: method as in PMID 27927057; conditions: in vitro, at 20 µg/mL; cited from earlier work
# Influenza A virus = conditions: in vitro; cited from earlier work
# [1] = test system: Respiratory syncytial virus; conditions: cited from earlier work
# SARS-CoV-2 RdRp = conditions: in vitro; cited from earlier work
# in vitro = conditions: cat, CC50
# FIPV = experiment: Post-viral entry assay, FIPV-infected cells by IPMA; conditions: Alphacoronavirus 1, CRFK
SMILES,CC50 (CRFK cells) [µM],inhibition (Duck hepatitis A virus),"CC10 (CRFK cells; cat, 24 h) [µM]","CC50 (CRFK cells; cat, 24 h) [µM]",EC50 (Influenza A virus) [µM],antiviral activity (in vitro concentration) [1] [µM],IC50 (SARS-CoV-2 RdRp) [µM],CC50 at 24 h (in vitro) [µM],EC50 (FIPV) [µM],EC90 (FIPV) [µM]
COc1ccc(-c2cc(=O)c3c(O)cc(O[C@@H]4O[C@H](CO[C@@H]5O[C@@H](C)[C@H](O)[C@@H](O)[C@H]5O)[C@@H](O)[C@H](O)[C@H]4O)cc3o2)cc1 [Linarin],> 200,Duck hepatitis A virus (in vitro: 69.3% inhibition at 20 µg/mL),–,–,–,–,–,–,–,–
O=c1cc(-c2ccc(O)c(O)c2)oc2cc(O)cc(O)c12 [Luteolin],–,–,136.80 ± 2.37,248 ± 3.4,6.89 to 7.15,2.08 to 24.71,4.6,> 200,36.28 ± 0.03,66 ± 1.82

# From paper PMC10082729, “First study on in vitro antiviral and virucidal effects of flavonoids against feline infectious peritonitis virus at the early stage of infection” (Veterinary World, 2023)
